Test results: US20230233569A1 (Revolution Medicines, Inc., priority 2020, published 2023)
Read-outs that look alike come from different tables or passages of the source.

Experiments:
KRAS G12V = KRAS G12V (Homo sapiens, UniProt P01116+P62937, G12V); experiment: Disruption of BRAF RBD interaction with Ras (FRET / MOA assay, with Cyclophilin A); type: biochemical
Method in brief: (§1)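 Cyclophilin A-dependent ternary complex assay. K-Ras loaded with nucleotide; BRAF RBD as effector. Cpd top 30 μM final, 3 h at 25 °C. Readout: TR-FRET ratio, IC50.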

KRAS G12D = KRAS G12D (Homo sapiens, UniProt P01116+P62937, G12D); experiment: as above; type: biochemical
Chain of KRAS G12D (P01116 1-169 isoform P01116-2 G12D limits assumed): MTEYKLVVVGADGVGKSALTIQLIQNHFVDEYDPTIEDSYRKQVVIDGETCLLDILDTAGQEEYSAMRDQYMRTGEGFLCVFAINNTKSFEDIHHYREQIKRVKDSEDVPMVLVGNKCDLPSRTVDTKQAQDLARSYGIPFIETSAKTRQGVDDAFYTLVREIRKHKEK
Chain of KRAS G12D (P62937 whole entry): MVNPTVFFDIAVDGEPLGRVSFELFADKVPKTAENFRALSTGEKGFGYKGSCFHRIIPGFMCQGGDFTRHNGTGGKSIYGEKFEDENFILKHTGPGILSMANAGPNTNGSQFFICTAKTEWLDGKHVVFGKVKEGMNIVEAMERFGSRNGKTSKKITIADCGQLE
Method in brief: as §1

KRAS G13C = KRAS G13C (Homo sapiens, UniProt P01116+P62937, G13C); experiment: as above; type: biochemical
Chain of KRAS G13C (P01116 1-169 isoform P01116-2 G13C): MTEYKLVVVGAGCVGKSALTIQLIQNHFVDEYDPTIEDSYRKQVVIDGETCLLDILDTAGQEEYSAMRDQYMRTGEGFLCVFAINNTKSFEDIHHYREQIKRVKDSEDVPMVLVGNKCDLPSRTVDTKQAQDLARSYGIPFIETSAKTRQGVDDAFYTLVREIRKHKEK
Chain of KRAS G13C (P62937 whole entry): as the sequence (P62937 whole entry) above
Method in brief: as §1

NRAS G12C = NRAS G12C (Homo sapiens, UniProt P01111+P62937, G12C); experiment: as above; type: biochemical
Chain of NRAS G12C (P01111 whole entry G12C): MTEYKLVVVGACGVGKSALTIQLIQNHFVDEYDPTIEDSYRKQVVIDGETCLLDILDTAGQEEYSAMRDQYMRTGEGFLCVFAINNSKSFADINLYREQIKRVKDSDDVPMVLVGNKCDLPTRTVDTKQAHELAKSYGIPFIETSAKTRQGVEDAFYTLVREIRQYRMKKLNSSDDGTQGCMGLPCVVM
Chain of NRAS G12C (P62937 whole entry): as the sequence (P62937 whole entry) above

KRAS G12C = KRAS G12C (Homo sapiens, UniProt P01116+P62937, G12C); experiment: as above; type: biochemical
Chain of KRAS G12C (P01116 1-169 isoform P01116-2 G12C): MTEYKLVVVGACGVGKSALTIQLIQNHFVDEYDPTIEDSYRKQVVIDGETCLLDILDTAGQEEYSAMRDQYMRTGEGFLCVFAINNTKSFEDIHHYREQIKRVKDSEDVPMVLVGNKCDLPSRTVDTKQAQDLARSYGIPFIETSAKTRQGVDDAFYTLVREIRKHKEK
Chain of KRAS G12C (P62937 whole entry): as the sequence (P62937 whole entry) above
Method in brief: as §1

KRAS G13D = KRAS G13D (Homo sapiens, UniProt P01116+P62937, G13D); experiment: as above; type: biochemical
Chain of KRAS G13D (P01116 1-169 isoform P01116-2 G13D limits assumed): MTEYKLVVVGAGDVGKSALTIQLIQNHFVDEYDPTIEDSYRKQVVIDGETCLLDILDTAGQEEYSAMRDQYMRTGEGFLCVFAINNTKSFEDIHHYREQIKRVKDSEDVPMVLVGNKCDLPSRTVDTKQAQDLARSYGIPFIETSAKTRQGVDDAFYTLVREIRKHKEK
Chain of KRAS G13D (P62937 whole entry): as the sequence (P62937 whole entry) above
Method in brief: as §1

KRAS G12S = KRAS G12S (Homo sapiens, UniProt P01116+P62937, G12S); experiment: as above; type: biochemical
Chain of KRAS G12S (P01116 1-169 isoform P01116-2 G12S limits assumed): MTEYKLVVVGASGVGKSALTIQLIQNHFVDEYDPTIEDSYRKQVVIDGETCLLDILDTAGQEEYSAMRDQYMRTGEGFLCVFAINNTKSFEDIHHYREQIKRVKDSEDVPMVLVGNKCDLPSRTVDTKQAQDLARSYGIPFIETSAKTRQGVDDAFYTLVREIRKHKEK
Chain of KRAS G12S (P62937 whole entry): as the sequence (P62937 whole entry) above
Method in brief: as §1

KRAS WT = KRAS WT (Homo sapiens, UniProt P01116+P62937); experiment: as above; type: biochemical
Chain of KRAS WT (P01116 1-169 isoform P01116-2 limits assumed): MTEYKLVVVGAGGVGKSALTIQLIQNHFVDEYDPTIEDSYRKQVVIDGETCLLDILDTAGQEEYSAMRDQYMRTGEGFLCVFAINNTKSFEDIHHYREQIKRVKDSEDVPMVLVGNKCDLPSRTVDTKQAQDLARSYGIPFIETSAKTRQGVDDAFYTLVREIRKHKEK
Chain of KRAS WT (P62937 whole entry): as the sequence (P62937 whole entry) above
Method in brief: as §1

Capan-1 (K-Ras G12V) = experiment: CellTiter-Glo cell viability assay, 5-day treatment; type: cell-based; conditions: Homo sapiens, CAPAN-1, 120 h, 5-day treatment; read-out: Capan-1 Cell Viability assay data (K-Ras G12V, IC50)
Method in brief: (§2)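 Compounds were dispensed directly onto seeded cells and incubated for 5 days, then plates were equilibrated to room temperature for about 30 minutes before luminescence reading. Signals were expressed as percent of the mean DMSO control and fitted with a four-parameter logistic curve.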

NCI-H358 (K-Ras G12C) = experiment: as above; type: cell-based; conditions: Homo sapiens, NCI-H358, 120 h, 5-day treatment; read-out: H358 Cell Viability assay data (K-Ras G12C, IC50)
Method in brief: as §2

[1] = KRAS G12V, read-out: KRAS G12V FRET data IC50
[2] = read-out: KRAS G12D FRET data, IC50
[3] = read-out: KRAS G13C FRET data, IC50
[4] = NRAS G12C, read-out: NRAS G12C FRET data IC50
[5] = read-out: KRAS G12C FRET data, IC50
[6] = KRAS G13D, read-out: KRAS G13D FRET data IC50
[7] = read-out: KRAS G12S FRET data, IC50
[8] = KRAS WT, read-out: KRAS WT FRET data IC50

Chain of KRAS G12V (P01116 1-169 isoform P01116-2 G12V limits assumed): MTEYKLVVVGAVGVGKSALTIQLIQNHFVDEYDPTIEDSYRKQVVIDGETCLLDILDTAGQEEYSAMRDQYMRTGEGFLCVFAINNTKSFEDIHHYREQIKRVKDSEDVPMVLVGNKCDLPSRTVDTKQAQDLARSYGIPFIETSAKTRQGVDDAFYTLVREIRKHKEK
Chain of KRAS G12V (P62937 whole entry): as the sequence (P62937 whole entry) above

Row | Compound | IC50 (KRAS G12V; KRAS G12V FRET data IC50, KRAS G12V) [nM] | IC50 (KRAS G12D; KRAS G12D FRET data, IC50) [nM] | IC50 (KRAS G13C; KRAS G13C FRET data, IC50) [nM] | IC50 (NRAS G12C; NRAS G12C FRET data IC50, NRAS G12C) [nM] | IC50 (KRAS G12C; KRAS G12C FRET data, IC50) [nM] | IC50 (KRAS G13D; KRAS G13D FRET data IC50, KRAS G13D) [nM] | IC50 (KRAS G12S; KRAS G12S FRET data, IC50) [nM] | IC50 (KRAS WT; KRAS WT FRET data IC50, KRAS WT) [nM] | IC50 (Capan-1 (K-Ras G12V)) [nM] | IC50 (NCI-H358 (K-Ras G12C)) [nM] | IC50 (KRAS G12V; [1]) [nM] | IC50 (KRAS G12D; [2]) [nM] | IC50 (KRAS G13C; [3]) [nM] | IC50 (NRAS G12C; [4]) [nM] | IC50 (KRAS G12C; [5]) [nM] | IC50 (KRAS G13D; [6]) [nM] | IC50 (KRAS G12S; [7]) [nM] | IC50 (KRAS WT; [8]) [nM]
1 | CCn1c(-c2cccnc2[C@H](C)OC)c2c3cc(ccc31)-c1cc(O)cc(c1)C[C@H](NC(=O)[C@H](C(C)C)N(C)C(=O)C1CCN3CCOCC13)C(=O)N1CCC[C@H](N1)C(=O)OCC(C)(C)C2 (stereo partly shown) [Example A123] | 100 to 1000 | 100 to 1000 | 10 to 100 | 100 to 1000 | 100 to 1000 | 100 to 1000 | 100 to 1000 | 100 to 1000 | 100 to 1000 | 100 to 1000 |  |  |  |  |  |  |  | 
2 | CCn1c(-c2cccnc2[C@H](C)OC)c2c3cc(ccc31)-c1cc(O)cc(c1)C[C@H](NC(=O)[C@H](C(C)C)N(C)C(=O)C1CNC1)C(=O)N1CCC[C@H](N1)C(=O)OCC(C)(C)C2 [Example A125] |  |  |  |  |  |  |  |  | 1000 to 10000 | 1000 to 10000 | 100 to 1000 | 10 to 100 | 10 to 100 | 10 to 100 | 10 to 100 | 10 to 100 | 10 to 100 | 10 to 100
3 | CCn1c(-c2cccnc2[C@H](C)OC)c2c3cc(ccc31)-c1cc(O)cc(c1)C[C@H](NC(=O)[C@H](C(C)C)N(C)C(=O)Cc1cc[nH]n1)C(=O)N1CCC[C@H](N1)C(=O)OCC(C)(C)C2 [Example A126] |  |  |  |  |  |  |  |  | 100 to 1000 | 100 to 1000 | 100 to 1000 | 100 to 1000 | 10 to 100 | 100 to 1000 | 10 to 100 | 100 to 1000 | 100 to 1000 | 10 to 100
4 | CCn1c(-c2cccnc2[C@H](C)OC)c2c3cc(ccc31)-c1cc(O)cc(c1)C[C@H](NC(=O)[C@H](C(C)C)N(C)C(=O)[C@H]1CCN[C@H]1C)C(=O)N1CCC[C@H](N1)C(=O)OCC(C)(C)C2 [Example A127] |  |  |  |  |  |  |  |  | > 10000 | 1000 to 10000 | 100 to 1000 | 10 to 100 | 10 to 100 | 10 to 100 | 10 to 100 | 10 to 100 | 10 to 100 | 10 to 100
5 | CCn1c(-c2cccnc2[C@H](C)OC)c2c3cc(ccc31)-c1cc(O)cc(c1)C[C@H](NC(=O)[C@H](C(C)C)N(C)C(=O)[C@@H]1CCNC1)C(=O)N1CCC[C@H](N1)C(=O)OCC(C)(C)C2 [Example A129] |  |  |  |  |  |  |  |  | 1000 to 10000 | 1000 to 10000 | 100 to 1000 | 10 to 100 | 10 to 100 | 10 to 100 | 10 to 100 | 10 to 100 | 10 to 100 | 10 to 100
6 | CCn1c(-c2cccnc2[C@H](C)OC)c2c3cc(ccc31)-c1cc(O)cc(c1)C[C@H](NC(=O)[C@H](C(C)C)N(C)C(=O)C1CC3CC1CN3)C(=O)N1CCC[C@H](N1)C(=O)OCC(C)(C)C2 (stereo partly shown) [Example A133] |  |  |  |  |  |  |  |  | > 10000 | > 10000 | 1000 to 10000 | 10 to 100 | 10 to 100 | 100 to 1000 | 100 to 1000 | 10 to 100 | 100 to 1000 | 100 to 1000
7 | CCn1c(-c2cccnc2[C@H](C)OC)c2c3cc(ccc31)-c1cc(O)cc(c1)C[C@H](NC(=O)[C@H](C(C)C)N(C)C(=O)[C@H]1CCCN[C@@H]1C)C(=O)N1CCC[C@H](N1)C(=O)OCC(C)(C)C2 [Example A134] |  |  |  |  |  |  |  |  | > 10000 | 1000 to 10000 | 1000 to 10000 | 10 to 100 | 10 to 100 | 100 to 1000 | 100 to 1000 | 10 to 100 | 100 to 1000 | 100 to 1000
8 | CCn1c(-c2cccnc2[C@H](C)OC)c2c3cc(ccc31)-c1csc(n1)C[C@H](NC(=O)[C@H](C(C)C)N(C)C(=O)NC)C(=O)N1CCC[C@H](N1)C(=O)OCC(C)(C)C2 [Example A137] |  |  |  |  |  |  |  |  | 100 to 1000 | 100 to 1000 | 100 to 1000 | 1000 to 10000 | 1000 to 10000 | 100 to 1000 | 100 to 1000 | 1000 to 10000 | 1000 to 10000 | 100 to 1000
9 | CCn1c(-c2cccnc2[C@H](C)OC)c2c3cc(ccc31)-c1csc(n1)C[C@H](NC(=O)[C@H](C1CCCC1)N(C)C(C)=O)C(=O)N1CCC[C@H](N1)C(=O)OCC(C)(C)C2 [Example A141] |  |  |  |  |  |  |  |  | 10 to 100 | 10 to 100 | 1000 to 10000 | > 10000 | 1000 to 10000 | 1000 to 10000 | 1000 to 10000 | 1000 to 10000 | 1000 to 10000 | 1000 to 10000
10 | CCn1c(-c2cccnc2[C@H](C)OC)c2c3cc(ccc31)-c1csc(n1)C[C@H](NC(=O)[C@H](C(C)C)N(C)C(=O)[C@@H]1OCC[C@@H]1C)C(=O)N1CCC[C@H](N1)C(=O)OCC(C)(C)C2 [Example A143] |  |  |  |  |  |  |  |  | 100 to 1000 | 100 to 1000 | 1000 to 10000 | > 10000 | 1000 to 10000 | 1000 to 10000 | 1000 to 10000 | 1000 to 10000 | 1000 to 10000 | 1000 to 10000
11 | CCn1c(-c2cccnc2[C@H](C)OC)c2c3cc(ccc31)-c1cc(O)cc(c1)C[C@H](NC(=O)[C@H](C(C)C)N(C)C(=O)[C@H]1C[C@H]1C)C(=O)N1CCC[C@H](N1)C(=O)OCC(C)(C)C2 [Example A146] |  |  |  |  |  |  |  |  | 100 to 1000 | 100 to 1000 | 10 to 100 | 100 to 1000 | 10 to 100 | 10 to 100 | 10 to 100 | 100 to 1000 | 100 to 1000 | 10 to 100
12 | CCn1c(-c2cccnc2[C@H](C)OC)c2c3cc(ccc31)-c1cc(O)cc(c1)C[C@H](NC(=O)[C@H](C(C)C)N(C)C(=O)[C@@H]1C[C@H]1C)C(=O)N1CCC[C@H](N1)C(=O)OCC(C)(C)C2 [Example A147] |  |  |  |  |  |  |  |  | 100 to 1000 | 10 to 100 | 10 to 100 | 100 to 1000 | 10 to 100 | 10 to 100 | 10 to 100 | 100 to 1000 | 10 to 100 | 10 to 100
13 | CCn1c(-c2cccnc2[C@H](C)OC)c2c3cc(ccc31)-c1cc(O)cc(c1)C[C@H](NC(=O)[C@H](C(C)C)N(C)C(=O)C1CC13CCNC3)C(=O)N1CCC[C@H](N1)C(=O)OCC(C)(C)C2 (stereo partly shown) [Example A148] |  |  |  |  |  |  |  |  | 1000 to 10000 | 1000 to 10000 | 100 to 1000 | 10 to 100 | 10 to 100 | 10 to 100 | 10 to 100 | 10 to 100 | 10 to 100 | 10 to 100
